Measurements taken from ChEMBL document CHEMBL1132180, “Synthesis, pharmacological and biophysical characterization, and membrane-interaction QSAR analysis of cationic amphiphilic model compounds” (J Med Chem, 1999).

Experiments:
Bos taurus [1] = species on record: Bos taurus; assay: Concentration at which Ca+ binding to phosphatidylserine monolayers is reduced to 50% of control; assay type: functional
physchem [2] = conditions: octanol/water
Description: Partition coefficient (logP) (HPLC)

physchem [3] = assay: physchem
Description: Dissociation constant (pKa)

[4] = Drug induced phase transition temperature with DPPA liposome.; assay type: functional
Cavia porcellus [5] = species on record: Cavia porcellus
Description: Elevation of the threshold alternating current to induce arrhythmia in isolated guinea pig heart.

Cavia porcellus [6] = species on record: Cavia porcellus; assay: Concentration required to elevate the threshold of alternating current to induce arrhythmia in isolated guinea pig heart by 50%; Vl = Very low activity; assay type: functional
Cavia porcellus [7] = species on record: Cavia porcellus; assay: Concentration required to elevate the threshold of alternating current to induce arrhythmia in isolated guinea pig heart by 50%; VL = Very low activity; assay type: functional
Bos taurus [8] = species on record: Bos taurus; assay: Concentration at which Ca+ binding to phosphatidylserine monolayers from bovine brain is reduced to 50% of control; assay type: functional
Cavia porcellus [9] = species on record: Cavia porcellus; assay: Concentration required to elevate the threshold of alternating current to induce arrhythmia in isolated guinea pig heart by 50%; Vl = very low activity; assay type: functional

Compound	Log IC50 (Bos taurus [1])	logP (physchem [2])	pKa (physchem [3])	Tt [4]	Log AC50 (Cavia porcellus [5])	Log AC50 (Cavia porcellus [6])	Log AC50 (Cavia porcellus [7])	Log IC50 (Bos taurus [8])	Log AC50 (Cavia porcellus [9])
CN(C)CCCc1ccc(-c2ccc(O)cc2)cc1.Cl	4.4 uM	2.1	9.32	349 k	4.43 uM	–	–	–	–
CN(C)CCCc1ccc(-c2ccccc2)cc1.Cl	5.4 uM	2.99	9.88	285 k	4.8 uM	–	–	–	–
Cc1ccc(CCCN(C)C)cc1.Cl	–	2	10.8	303 k	4.02 uM	–	–	–	–
CC(C)c1ccc(CCCN(C)C)cc1.Cl	–	2.75	10.5	299 k	4.22 uM	–	–	–	–
C[N+](C)(C)CCCc1ccccc1.[Cl-]	3.4 uM	0.44	–	307 k	–	Very low activity	–	–	–
CN(C)CCCc1ccc(Br)cc1	–	2.37	10.6	–	–	–	–	–	–
CN(C)CCCc1cccnc1.Cl	3.6 uM	0.57	10.7	–	–	–	Very low activity	–	–
CN(C)CCC(c1ccccc1)c1ccc(-c2ccccc2)cc1 (centres undefined)	–	3.36	9.85	294 k	–	–	–	–	–
CN(C)CCCc1ccc(Cl)cc1.Cl	–	2.21	10.6	302 k	4.31 uM	–	–	3.85 uM	–
CN(C)CCCc1ccc2ccccc2c1.Cl	4.35 uM	2.62	10.3	297 k	4.52 uM	–	–	–	–
CN(C)CCC(c1ccccc1)c1ccccc1.Cl	4.85 uM	2.76	10	308 k	4.37 uM	–	–	–	–
CN(C)CCCc1ccc(-c2ccc(Cl)cc2)cc1.Cl	–	3.45	9.96	–	5.7 uM	–	–	–	–
CN(C)CCCc1ccc(C(C)(C)C)cc1.Cl	5.4 uM	2.96	10	297 k	4.52 uM	–	–	–	–
CN(C)CCCc1ccc(O)c(Cl)c1.Cl	–	0.97	–	294 k	3.82 uM	–	–	–	–
CN(C)CCCc1ccc([N+](=O)[O-])cc1.Cl	4.15 uM	1.5	10.7	307 k	–	–	–	–	Very low activity
COc1ccc(-c2ccc(CCC[N+](C)(C)C)cc2)cc1	–	2.17	–	–	–	Very low activity	–	–	–
COc1ccc(CCCN(C)C)cc1Cl.Cl	–	1.92	10.8	–	4.44 uM	–	–	–	–
CCOc1ccc(-c2ccc(CCCN(C)C)cc2)cc1.Cl	–	3.3	9.82	–	4.8 uM	–	–	–	–
CN(C)CCCc1ccc(O)cc1.Cl	2.72 uM	0.35	–	314 k	3.29 uM	–	–	–	–
CN(C)CC(Cc1ccccc1)c1ccccc1.Cl (centres undefined)	–	2.59	9.93	309 k	4.13 uM	–	–	–	–
CN(C)CCCc1ccccc1.Cl	3 uM	1.5	11	3.8 k	3.55 uM	–	–	–	–
CCCc1ccc(CCCN(C)C)cc1.Cl	–	2.89	10.5	295 k	4.85 uM	–	–	–	–
COc1ccc(-c2ccc(CCCN(C)C)cc2)cc1.Cl	5.4 uM	2.95	9.85	296 k	4.96 uM	–	–	–	–
CCc1ccc(CCCN(C)C)cc1.Cl	–	2.45	10.6	300 k	3.94 uM	–	–	–	–
CN(C)CCCc1ccc(N)cc1.Cl	–	0.12	10.9	–	3 uM	–	–	–	–
